Marks after values point to notes of the source that are not given here.
System: db/db mice
Assay: Metabolomics study: metabolite profiling of liver, muscle, adipose tissue and plasma of treated db/db mice
Format: in vivo, mouse
Procedure: Maledb/db mice (8 weeks) were orally gavaged once daily with either vehicle or 10 mg/kg compound 309. Liver, muscle, adipose tissue, and plasma from treated mice (n=6/treatment group) were collected 30 minutes after dosing both on day 3 of treatment. Frozen tissue and plasma samples were sent to Metabolon for unbiased metabolite analysis [(Durham, N.C.) See, Evans A, DeHaven C, Barrett T, Mitchell M, Milgram E (2009)—Integrated, nontargeted ultrahigh performance liquid chromatography/electrospray ionization tandem mass spectrometry platform for the identification and relative quantification of the small-molecule complement of biological systems. Anal Chem 81: 6656-6667. Lawton K, Berger A, Mitchell M, Milgram K, Evans A, et al. (2008)—Analysis of the adult human plasma metabolome. Pharmacogenomics 9: 383-397. Reitman Z J, Jin G, Karoly E D, Spasojevic I, Yang J, et al. (2011) Profiling the effects of isocitrate dehydrogenase 1 and 2 mutations on the cellular metabolome. PNAS 108: […].] Biochemical data were analyzed using Welch's two-sample t-tests.
Metabolite profiling of tissues from db/db mice orally dosed with either vehicle or 10 mg/kg compound 309 was used to characterize in detail the effects of the present AMPK activators on nutrient pathways in a commonly used mouse model of type 2 diabetes. […] Since AMPK activation results in both acute and chronic changes to metabolic pathways, samples from non-fasted mice treated for three days with compound 309 were analyzed. Samples were collected thirty minutes after compound dosing when compound 309 plasma levels as well as tissue AMPK activation were maximal.

[1] = Adipose, 10 mg/kg oral once daily, day 3, 30 min after dosing
[2] = Liver, 10 mg/kg oral once daily, day 3, 30 min after dosing
[3] = Muscle, 10 mg/kg oral once daily, day 3, 30 min after dosing
[4] = Plasma, 10 mg/kg oral once daily, day 3, 30 min after dosing

## COc1ccc(C(=O)C2CCN(C(=O)c3ccc(C(=O)NC4CCN(Cc5ccc(C#N)cc5)CC4)cn3)CC2)cc1 [Compound 309, N-(1-(4-cyanobenzyl)piperidin-4-yl)-6-(4-(4-methoxybenzoyl)piperidine-1-carbonyl)nicotinamide]
10 mg/kg
  relative levels of the other amino acids: not similarly affected
[1]
  2-methylbutyrlcarnitine (C5) Ratio (Compound 309/Vehicle): 0.57^††
  3-hydroxybutyrate (BHBA) Ratio (Compound 309/Vehicle): 1.68**
  3-hydroxyisobutyrate Ratio (Compound 309/Vehicle): 1.13
  3-methyl-2-oxobutyrate Ratio (Compound 309/Vehicle): 1
  3-methyl-2-oxovalerate Ratio (Compound 309/Vehicle): 1.31**
  4-methyl-2-oxopentanoate Ratio (Compound 309/Vehicle): 1.23
  alanine Ratio (Compound 309/Vehicle): 1
  arginine Ratio (Compound 309/Vehicle): 0.86^††
  asparagine Ratio (Compound 309/Vehicle): 0.84
  aspartate Ratio (Compound 309/Vehicle): 0.72^††
  butyrylcarnitine Ratio (Compound 309/Vehicle): 0.82
  cysteine Ratio (Compound 309/Vehicle): 0.62^†
  glutamate Ratio (Compound 309/Vehicle): 0.89
  glutamine Ratio (Compound 309/Vehicle): 0.95
  glycine Ratio (Compound 309/Vehicle): 0.81
  hydroxybutyrylcarnitine Ratio (Compound 309/Vehicle): 1.7**
  hydroxylisovaleroyl carnitine Ratio (Compound 309/Vehicle): 0.86
  isobutyrylcarnitine Ratio (Compound 309/Vehicle): 0.57^††
  isoleucine Ratio (Compound 309/Vehicle): 0.73
  isovalerylcarnitine Ratio (Compound 309/Vehicle): 0.58^††
  leucine Ratio (Compound 309/Vehicle): 0.78
  lysine Ratio (Compound 309/Vehicle): 0.74
  methionine Ratio (Compound 309/Vehicle): 0.87
  phenylalanine Ratio (Compound 309/Vehicle): 0.82
  proline Ratio (Compound 309/Vehicle): 0.86
  propionylcarnitine Ratio (Compound 309/Vehicle): 0.77
  serine Ratio (Compound 309/Vehicle): 0.85
  threonine Ratio (Compound 309/Vehicle): 0.77^†
  tryptophan Ratio (Compound 309/Vehicle): 0.9
  tyrosine Ratio (Compound 309/Vehicle): 0.85
  valine Ratio (Compound 309/Vehicle): 0.81
[2]
  2-methylbutyrlcarnitine (C5) Ratio (Compound 309/Vehicle): 0.76
  3-hydroxybutyrate (BHBA) Ratio (Compound 309/Vehicle): 1.15
  3-methylglutaryl carnitine (C6) Ratio (Compound 309/Vehicle): 0.57^††
  N-acetylleucine Ratio (Compound 309/Vehicle): 0.94
  alanine Ratio (Compound 309/Vehicle): 1.4**
  alpha-hydroxyisovalerate Ratio (Compound 309/Vehicle): 0.86
  arginine Ratio (Compound 309/Vehicle): 1.67
  aspartate Ratio (Compound 309/Vehicle): 1.59**
  butyrylglycine Ratio (Compound 309/Vehicle): 0.41^††
  cysteine Ratio (Compound 309/Vehicle): 0.97
  glutamate Ratio (Compound 309/Vehicle): 1.61**
  glutamine Ratio (Compound 309/Vehicle): 1.04
  glycine Ratio (Compound 309/Vehicle): 0.96
  histidine Ratio (Compound 309/Vehicle): 1.16*
  hydroxybutyrylcarnitine Ratio (Compound 309/Vehicle): 1.45**
  hydroxylisovaleroyl carnitine Ratio (Compound 309/Vehicle): 1
  isoleucine Ratio (Compound 309/Vehicle): 0.86^††
  isovalerylcarnitine Ratio (Compound 309/Vehicle): 0.54^††
  leucine Ratio (Compound 309/Vehicle): 0.94
  lysine Ratio (Compound 309/Vehicle): 1.11*
  methionine Ratio (Compound 309/Vehicle): 1.03
  phenylalanine Ratio (Compound 309/Vehicle): 0.96
  proline Ratio (Compound 309/Vehicle): 0.94
  propionylcarnitine Ratio (Compound 309/Vehicle): 0.73
  serine Ratio (Compound 309/Vehicle): 1.19
  threonine Ratio (Compound 309/Vehicle): 0.94
  tryptophan Ratio (Compound 309/Vehicle): 0.99
  tyrosine Ratio (Compound 309/Vehicle): 1.08
  valine Ratio (Compound 309/Vehicle): 0.87^††
[3]
  2-methylbutyrlcarnitine (C5) Ratio (Compound 309/Vehicle): 0.63^††
  3-hydroxybutyrate (BHBA) Ratio (Compound 309/Vehicle): 2.2**
  3-hydroxyisobutyrate Ratio (Compound 309/Vehicle): 1.33*
  3-methyl-2-oxovalerate Ratio (Compound 309/Vehicle): 0.78
  4-methyl-2-oxopentanoate Ratio (Compound 309/Vehicle): 0.96
  alanine Ratio (Compound 309/Vehicle): 0.96
  alpha-hydroxyisovalerate Ratio (Compound 309/Vehicle): 0.85
  arginine Ratio (Compound 309/Vehicle): 0.71
  aspartate Ratio (Compound 309/Vehicle): 0.82
  butyrylcarnitine Ratio (Compound 309/Vehicle): 0.62
  butyrylglycine Ratio (Compound 309/Vehicle): 1.07
  glutamate Ratio (Compound 309/Vehicle): 1.15
  glutamine Ratio (Compound 309/Vehicle): 1.04
  glycine Ratio (Compound 309/Vehicle): 0.96
  histidine Ratio (Compound 309/Vehicle): 1
  hydroxybutyrylcarnitine Ratio (Compound 309/Vehicle): 1.34*
  hydroxylisovaleroyl carnitine Ratio (Compound 309/Vehicle): 0.86^†
  isobutyrylcarnitine Ratio (Compound 309/Vehicle): 0.64^††
  isoleucine Ratio (Compound 309/Vehicle): 0.81^††
  isovalerylcarnitine Ratio (Compound 309/Vehicle): 0.58^††
  leucine Ratio (Compound 309/Vehicle): 0.83^†
  lysine Ratio (Compound 309/Vehicle): 0.96
  methionine Ratio (Compound 309/Vehicle): 0.78^†
  phenylalanine Ratio (Compound 309/Vehicle): 0.91
  proline Ratio (Compound 309/Vehicle): 0.92
  propionylcarnitine Ratio (Compound 309/Vehicle): 0.87^†
  serine Ratio (Compound 309/Vehicle): 0.89
  threonine Ratio (Compound 309/Vehicle): 0.89
  tiglyl carnitine Ratio (Compound 309/Vehicle): 0.98
  tryptophan Ratio (Compound 309/Vehicle): 0.95
  tyrosine Ratio (Compound 309/Vehicle): 0.96
  valine Ratio (Compound 309/Vehicle): 0.77^††
[4]
  2-hydroxy-3-methylvalerate Ratio (Compound 309/Vehicle): 0.91
  2-methylbutyrlcarnitine (C5) Ratio (Compound 309/Vehicle): 0.56^††
  3-hydroxybutyrate (BHBA) Ratio (Compound 309/Vehicle): 1.93**
  3-hydroxyisobutyrate Ratio (Compound 309/Vehicle): 1.69**
  3-methyl-2-oxobutyrate Ratio (Compound 309/Vehicle): 1.17
  3-methyl-2-oxovalerate Ratio (Compound 309/Vehicle): 1.06
  3-methylglutaryl carnitine (C6) Ratio (Compound 309/Vehicle): 0.55^††
  4-methyl-2-oxopentanoate Ratio (Compound 309/Vehicle): 1.05
  N-acetylisoleucisne Ratio (Compound 309/Vehicle): 1.11
  N-acetylleucine Ratio (Compound 309/Vehicle): 0.96
  alanine Ratio (Compound 309/Vehicle): 1.22
  alpha-hydroxyisocaproate Ratio (Compound 309/Vehicle): 0.91
  alpha-hydroxyisovalerate Ratio (Compound 309/Vehicle): 0.91
  arginine Ratio (Compound 309/Vehicle): 0.95
  asparagine Ratio (Compound 309/Vehicle): 0.89
  butyrylcarnitine Ratio (Compound 309/Vehicle): 0.65^†
  butyrylglycine Ratio (Compound 309/Vehicle): 0.41^††
  cysteine Ratio (Compound 309/Vehicle): 0.94
  glutamate Ratio (Compound 309/Vehicle): 1.22*
  glutamine Ratio (Compound 309/Vehicle): 1.03
  glycine Ratio (Compound 309/Vehicle): 1.03
  histidine Ratio (Compound 309/Vehicle): 0.99
  hydroxybutyrylcarnitine Ratio (Compound 309/Vehicle): 2.28**
  isobutyrylcarnitine Ratio (Compound 309/Vehicle): 0.41^††
  isoleucine Ratio (Compound 309/Vehicle): 0.75^††
  isovalerylcarnitine Ratio (Compound 309/Vehicle): 0.45^††
  isovalerylglycine Ratio (Compound 309/Vehicle): 0.67^††
  leucine Ratio (Compound 309/Vehicle): 0.75^†
  lysine Ratio (Compound 309/Vehicle): 0.91
  methionine Ratio (Compound 309/Vehicle): 0.88
  phenylalanine Ratio (Compound 309/Vehicle): 0.87
  proline Ratio (Compound 309/Vehicle): 0.96
  propionylcarnitine Ratio (Compound 309/Vehicle): 1.07
  serine Ratio (Compound 309/Vehicle): 0.83^†
  threonine Ratio (Compound 309/Vehicle): 0.9
  tigloylglycine Ratio (Compound 309/Vehicle): 0.96
  tryptophan Ratio (Compound 309/Vehicle): 1.02
  tyrosine Ratio (Compound 309/Vehicle): 1.11
  valine Ratio (Compound 309/Vehicle): 0.91
All compartments sampled, 10 mg/kg
  hydroxybutyrylcarnitine levels: similarly increased
All three major metabolic organs and plasma, 10 mg/kg
  intermediates of the catabolic pathways of all three BCAA: Marked reductions
Data not shown
  effects on glucose metabolic pathways in global metabolite profiling: no dramatic effects
Liver and plasma, 10 mg/kg
  relative levels of butyrylglycine and butyrylcarnitine: reduction
liver, 10 mg/kg oral once daily, day 3
  BHBA level vs vehicle: no difference
muscle, fat and plasma, 10 mg/kg oral once daily, day 3
  3-hydroxybutyrate (BHBA) level vs vehicle: significant elevation
